Legend:
[1] = biological target: PHD finger protein 6 (Homo sapiens) (UniProt Q8IWS0)
[2] = biological target: Centrosome and spindle pole-associated protein 1 (Homo sapiens) (UniProt Q1MSJ5)
[3] = biological target: NUAK family SNF1-like kinase 2 (Homo sapiens) (UniProt Q9H093)
[4] = biological target: N(G),N(G)-dimethylarginine dimethylaminohydrolase 1 (Homo sapiens) (UniProt O94760)
[5] = biological target: Transducin beta-like protein 3 (Homo sapiens) (UniProt Q12788)
[6] = biological target: Solute carrier family 2, facilitated glucose transporter member 1 (Homo sapiens) (UniProt P11166)
Sequence of Solute carrier family 2, facilitated glucose transporter member 1 (Homo sapiens) (P11166 whole entry): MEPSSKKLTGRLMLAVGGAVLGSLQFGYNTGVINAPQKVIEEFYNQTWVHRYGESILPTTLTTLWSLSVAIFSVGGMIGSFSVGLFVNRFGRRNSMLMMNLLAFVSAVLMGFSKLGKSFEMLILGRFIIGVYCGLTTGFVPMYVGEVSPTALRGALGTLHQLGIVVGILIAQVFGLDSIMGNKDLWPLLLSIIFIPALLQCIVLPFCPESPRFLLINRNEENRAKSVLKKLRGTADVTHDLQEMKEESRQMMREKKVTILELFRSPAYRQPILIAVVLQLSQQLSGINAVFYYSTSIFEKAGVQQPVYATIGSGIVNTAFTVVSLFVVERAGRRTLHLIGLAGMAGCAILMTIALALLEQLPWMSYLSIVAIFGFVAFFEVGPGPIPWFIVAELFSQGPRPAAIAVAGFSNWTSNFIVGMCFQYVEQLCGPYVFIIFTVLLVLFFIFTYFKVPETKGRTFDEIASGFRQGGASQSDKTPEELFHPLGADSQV

[7] = biological target: Stearoyl-CoA desaturase (Homo sapiens) (UniProt O00767)
[8] = biological target: EKC/KEOPS complex subunit LAGE3 (Homo sapiens) (UniProt Q14657)
[9] = biological target: Phosphatidate cytidylyltransferase 2 (Homo sapiens) (UniProt O95674)
[10] = biological target: 14-3-3 protein sigma (Homo sapiens) (UniProt P31947)
[11] = biological target: Signal recognition particle 19 kDa protein (Homo sapiens) (UniProt P09132)
[12] = biological target: Secretory carrier-associated membrane protein 2 (Homo sapiens) (UniProt O15127)
[13] = biological target: Phosphorylated adapter RNA export protein (Homo sapiens) (UniProt Q9H814)
[14] = biological target: Small nuclear ribonucleoprotein F (Homo sapiens) (UniProt P62306)
Sequence of Small nuclear ribonucleoprotein F (Homo sapiens) (P62306 2-86 limits assumed): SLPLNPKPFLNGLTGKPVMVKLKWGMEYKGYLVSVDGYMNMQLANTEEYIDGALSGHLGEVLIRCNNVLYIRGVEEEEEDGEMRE

Homo sapiens [15] = species: Homo sapiens
[16] = biological target: Serine/threonine-protein kinase 26 (Homo sapiens) (UniProt Q9P289)
Sequence of Serine/threonine-protein kinase 26 (Homo sapiens) (Q9P289 2-416 limits assumed): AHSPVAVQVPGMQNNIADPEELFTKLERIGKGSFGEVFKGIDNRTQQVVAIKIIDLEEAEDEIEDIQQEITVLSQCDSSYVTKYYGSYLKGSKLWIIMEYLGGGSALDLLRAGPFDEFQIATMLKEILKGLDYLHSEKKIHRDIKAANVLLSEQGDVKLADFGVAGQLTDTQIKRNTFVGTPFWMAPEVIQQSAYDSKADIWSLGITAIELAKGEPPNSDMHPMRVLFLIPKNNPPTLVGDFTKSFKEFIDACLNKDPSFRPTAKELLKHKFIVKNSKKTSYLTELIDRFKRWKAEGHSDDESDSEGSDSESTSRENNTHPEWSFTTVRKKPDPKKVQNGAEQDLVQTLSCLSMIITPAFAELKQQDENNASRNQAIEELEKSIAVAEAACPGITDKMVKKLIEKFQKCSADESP

[17] = biological target: Small ribosomal subunit protein eS1 (Homo sapiens) (UniProt P61247)
[18] = biological target: Lysophosphatidylcholine acyltransferase 1 (Homo sapiens) (UniProt Q8NF37)
[19] = biological target: Calcium-binding and coiled-coil domain-containing protein 2 (Homo sapiens) (UniProt Q13137)
Tektin-1 (Homo sapiens) = Tektin-1 (Homo sapiens) (UniProt Q969V4)
[20] = biological target: Lysosomal alpha-mannosidase (Homo sapiens) (UniProt O00754)
[21] = biological target: WASH complex subunit 4 (Homo sapiens) (UniProt Q2M389)
[22] = biological target: Uncharacterized aarF domain-containing protein kinase 5 (Homo sapiens) (UniProt Q3MIX3)
Sequence of Uncharacterized aarF domain-containing protein kinase 5 (Homo sapiens) (Q3MIX3 whole entry, the tested form may be a part): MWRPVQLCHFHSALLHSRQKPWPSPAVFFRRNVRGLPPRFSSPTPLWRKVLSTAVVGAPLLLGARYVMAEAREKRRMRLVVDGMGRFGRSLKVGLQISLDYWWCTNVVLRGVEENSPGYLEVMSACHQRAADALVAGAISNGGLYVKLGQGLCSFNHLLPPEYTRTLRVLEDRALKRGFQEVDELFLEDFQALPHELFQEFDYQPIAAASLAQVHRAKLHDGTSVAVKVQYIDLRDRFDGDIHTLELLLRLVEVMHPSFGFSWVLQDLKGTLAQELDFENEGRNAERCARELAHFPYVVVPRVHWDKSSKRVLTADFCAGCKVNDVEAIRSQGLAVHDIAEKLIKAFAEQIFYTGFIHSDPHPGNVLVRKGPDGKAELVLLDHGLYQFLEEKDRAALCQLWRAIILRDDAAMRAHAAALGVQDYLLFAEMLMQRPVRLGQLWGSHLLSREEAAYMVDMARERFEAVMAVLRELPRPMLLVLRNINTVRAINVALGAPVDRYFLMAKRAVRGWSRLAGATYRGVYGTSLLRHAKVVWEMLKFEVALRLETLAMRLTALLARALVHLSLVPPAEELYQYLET

Homo sapiens [23] = species: Homo sapiens; remark: listed apart in the source
[24] = biological target: Small ribosomal subunit protein uS11 (Homo sapiens) (UniProt P62263)
[25] = biological target: Inositol 1,4,5-trisphosphate-gated calcium channel ITPR1 (Homo sapiens) (UniProt Q14643)
[26] = biological target: eIF5-mimic protein 1 (Homo sapiens) (UniProt Q9Y6E2)
Sequence of eIF5-mimic protein 1 (Homo sapiens) (Q9Y6E2 whole entry): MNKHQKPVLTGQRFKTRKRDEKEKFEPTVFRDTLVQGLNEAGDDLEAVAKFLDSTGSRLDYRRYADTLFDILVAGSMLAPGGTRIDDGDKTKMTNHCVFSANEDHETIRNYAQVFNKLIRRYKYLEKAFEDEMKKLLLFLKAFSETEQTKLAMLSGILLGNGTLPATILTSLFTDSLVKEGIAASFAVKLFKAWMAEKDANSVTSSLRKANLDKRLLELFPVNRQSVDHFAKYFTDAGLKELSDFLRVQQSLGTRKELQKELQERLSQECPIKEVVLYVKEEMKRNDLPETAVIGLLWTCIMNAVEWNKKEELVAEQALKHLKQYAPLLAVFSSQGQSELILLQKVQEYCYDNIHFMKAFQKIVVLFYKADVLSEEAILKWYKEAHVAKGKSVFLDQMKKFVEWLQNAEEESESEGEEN

[27] = biological target: Choline/ethanolaminephosphotransferase 1 (Homo sapiens) (UniProt Q9Y6K0)
Homo sapiens [28] = species: Homo sapiens; remark: listed apart in the source
[29] = biological target: Ragulator complex protein LAMTOR3 (Homo sapiens) (UniProt Q9UHA4)
[30] = biological target: Putative uncharacterized protein ZNF436-AS1 (Homo sapiens) (UniProt Q8NC38)
Sequence of Putative uncharacterized protein ZNF436-AS1 (Homo sapiens) (Q8NC38 whole entry): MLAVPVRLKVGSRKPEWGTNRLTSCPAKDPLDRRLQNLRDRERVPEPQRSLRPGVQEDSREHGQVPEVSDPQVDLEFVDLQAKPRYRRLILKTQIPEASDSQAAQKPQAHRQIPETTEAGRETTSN

[31] = biological target: ATP-binding cassette sub-family F member 2 (Homo sapiens) (UniProt Q9UG63)
[32] = biological target: Nucleolar RNA helicase 2 (Homo sapiens) (UniProt Q9NR30)
[33] = biological target: Replication factor C subunit 1 (Homo sapiens) (UniProt P35251)
[34] = biological target: Tubulin alpha-4A chain (Homo sapiens) (UniProt P68366)
Sequence of Tubulin alpha-4A chain (Homo sapiens) (P68366 whole entry, looked up): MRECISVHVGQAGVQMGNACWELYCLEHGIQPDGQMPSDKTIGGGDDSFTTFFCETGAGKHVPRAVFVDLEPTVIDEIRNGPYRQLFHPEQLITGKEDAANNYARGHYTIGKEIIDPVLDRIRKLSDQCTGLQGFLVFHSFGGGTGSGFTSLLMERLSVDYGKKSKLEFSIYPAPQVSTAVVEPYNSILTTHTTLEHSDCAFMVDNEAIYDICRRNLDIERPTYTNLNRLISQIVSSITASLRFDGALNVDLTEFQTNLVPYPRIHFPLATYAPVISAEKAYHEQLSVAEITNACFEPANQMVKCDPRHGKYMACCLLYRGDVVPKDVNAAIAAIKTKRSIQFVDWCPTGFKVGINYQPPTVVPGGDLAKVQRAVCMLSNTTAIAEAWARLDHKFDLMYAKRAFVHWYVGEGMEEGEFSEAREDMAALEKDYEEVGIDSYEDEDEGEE

[35] = biological target: Serine/threonine-protein phosphatase 4 regulatory subunit 3A (Homo sapiens) (UniProt Q6IN85)
[36] = biological target: Glutathione S-transferase kappa 1 (Homo sapiens) (UniProt Q9Y2Q3)
Sequence of Glutathione S-transferase kappa 1 (Homo sapiens) (Q9Y2Q3 whole entry): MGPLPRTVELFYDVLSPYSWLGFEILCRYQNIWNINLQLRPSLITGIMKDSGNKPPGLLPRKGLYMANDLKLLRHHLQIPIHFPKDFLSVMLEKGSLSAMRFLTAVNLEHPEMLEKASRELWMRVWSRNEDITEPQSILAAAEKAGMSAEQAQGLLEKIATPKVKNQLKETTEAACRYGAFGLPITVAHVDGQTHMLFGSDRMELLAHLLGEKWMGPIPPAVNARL

[37] = biological target: Bone marrow stromal antigen 2 (Homo sapiens) (UniProt Q10589)
Sequence of Bone marrow stromal antigen 2 (Homo sapiens) (Q10589 whole entry): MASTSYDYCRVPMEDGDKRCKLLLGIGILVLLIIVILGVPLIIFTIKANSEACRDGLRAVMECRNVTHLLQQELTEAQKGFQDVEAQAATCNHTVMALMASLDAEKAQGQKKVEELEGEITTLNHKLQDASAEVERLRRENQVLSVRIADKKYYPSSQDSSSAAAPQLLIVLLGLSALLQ

Homo sapiens [38] = species: Homo sapiens; remark: listed apart in the source
[39] = biological target: Heterogeneous nuclear ribonucleoprotein R (Homo sapiens) (UniProt O43390)
[40] = biological target: Very-long-chain (3R)-3-hydroxyacyl-CoA dehydratase 3 (Homo sapiens) (UniProt Q9P035)
[41] = biological target: Palmitoyl-protein thioesterase 1 (Homo sapiens) (UniProt P50897)
[42] = biological target: Elongation factor Tu, mitochondrial (Homo sapiens) (UniProt P49411)
Translin (Homo sapiens) = Translin (Homo sapiens) (UniProt Q15631)
[43] = biological target: 3-hydroxyacyl-CoA dehydrogenase type-2 (Homo sapiens) (UniProt Q99714)
Sequence of 3-hydroxyacyl-CoA dehydrogenase type-2 (Homo sapiens) (Q99714 whole entry): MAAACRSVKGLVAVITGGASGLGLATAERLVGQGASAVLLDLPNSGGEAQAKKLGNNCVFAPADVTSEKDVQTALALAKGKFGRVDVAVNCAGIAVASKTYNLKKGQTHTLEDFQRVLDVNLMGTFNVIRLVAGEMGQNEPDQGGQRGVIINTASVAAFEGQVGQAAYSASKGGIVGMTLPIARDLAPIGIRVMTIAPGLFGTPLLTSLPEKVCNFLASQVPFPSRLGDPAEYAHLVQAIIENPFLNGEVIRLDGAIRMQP

[44] = biological target: DNA replication licensing factor MCM3 (Homo sapiens) (UniProt P25205)
[45] = biological target: GDP-mannose 4,6 dehydratase (Homo sapiens) (UniProt O60547)
Further: assay method not described here.

Sequence of PHD finger protein 6 (Homo sapiens) (Q8IWS0 whole entry): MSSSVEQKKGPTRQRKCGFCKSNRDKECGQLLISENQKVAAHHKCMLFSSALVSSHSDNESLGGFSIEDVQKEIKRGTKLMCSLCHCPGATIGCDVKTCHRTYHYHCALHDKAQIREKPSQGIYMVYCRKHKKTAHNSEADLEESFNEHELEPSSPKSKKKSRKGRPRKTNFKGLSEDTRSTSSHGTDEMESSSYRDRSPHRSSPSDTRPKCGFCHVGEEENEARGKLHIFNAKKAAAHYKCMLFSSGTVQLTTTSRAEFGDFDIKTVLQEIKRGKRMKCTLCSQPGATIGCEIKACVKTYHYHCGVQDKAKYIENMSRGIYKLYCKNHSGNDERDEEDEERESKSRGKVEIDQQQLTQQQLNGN
Sequence of Centrosome and spindle pole-associated protein 1 (Homo sapiens) (Q1MSJ5 whole entry): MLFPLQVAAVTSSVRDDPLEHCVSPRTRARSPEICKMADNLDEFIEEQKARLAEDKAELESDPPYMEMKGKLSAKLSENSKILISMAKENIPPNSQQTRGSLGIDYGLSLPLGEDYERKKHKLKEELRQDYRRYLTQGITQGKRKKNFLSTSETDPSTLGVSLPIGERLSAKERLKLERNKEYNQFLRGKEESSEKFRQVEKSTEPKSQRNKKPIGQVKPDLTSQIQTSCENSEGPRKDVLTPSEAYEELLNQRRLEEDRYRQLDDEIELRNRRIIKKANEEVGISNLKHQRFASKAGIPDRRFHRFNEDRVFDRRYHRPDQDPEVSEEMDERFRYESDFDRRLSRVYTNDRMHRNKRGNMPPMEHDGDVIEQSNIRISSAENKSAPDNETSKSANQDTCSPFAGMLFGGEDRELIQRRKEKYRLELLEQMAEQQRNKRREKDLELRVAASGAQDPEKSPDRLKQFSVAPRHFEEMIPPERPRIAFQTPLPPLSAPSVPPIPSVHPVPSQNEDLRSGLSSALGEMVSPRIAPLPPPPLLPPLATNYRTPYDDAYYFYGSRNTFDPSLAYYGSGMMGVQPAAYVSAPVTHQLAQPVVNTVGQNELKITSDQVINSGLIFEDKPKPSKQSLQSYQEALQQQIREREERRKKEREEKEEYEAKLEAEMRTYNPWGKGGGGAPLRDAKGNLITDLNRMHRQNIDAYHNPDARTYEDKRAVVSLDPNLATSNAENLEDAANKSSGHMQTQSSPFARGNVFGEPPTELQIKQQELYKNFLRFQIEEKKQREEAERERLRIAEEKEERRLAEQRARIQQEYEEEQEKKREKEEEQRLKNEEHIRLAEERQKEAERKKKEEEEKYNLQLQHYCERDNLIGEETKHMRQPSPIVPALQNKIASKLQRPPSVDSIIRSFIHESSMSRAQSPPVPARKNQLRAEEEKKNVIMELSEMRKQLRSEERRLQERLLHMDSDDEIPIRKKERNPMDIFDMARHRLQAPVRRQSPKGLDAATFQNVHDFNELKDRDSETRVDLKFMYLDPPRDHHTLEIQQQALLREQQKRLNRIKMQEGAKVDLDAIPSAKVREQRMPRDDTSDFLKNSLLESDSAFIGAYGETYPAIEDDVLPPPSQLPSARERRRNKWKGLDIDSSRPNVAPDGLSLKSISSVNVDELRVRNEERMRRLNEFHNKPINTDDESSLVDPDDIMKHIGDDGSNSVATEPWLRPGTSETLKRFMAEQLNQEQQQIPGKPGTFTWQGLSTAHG

Structure (SMILES): Cc1ccc(C(=O)Nc2cccc(C(F)(F)F)c2)cc1Nc1nc(-c2cccnc2)nc2c1cnn2C
- ED50 [1]: 2.01 µM
- ED50 [2]: 1.41 µM
- ED50 [3]: 1.31 µM
- ED50 [4]: 61.8 µM
- ED50 [5]: 4.7 µM
- ED50 [6]: 1.85 µM
- ED50 [7]: 0.00465 µM
- ED50 [8]: 131 µM
- ED50 [9]: 4.33 µM
- ED50 [10]: 0.00306 µM
- ED50 [11]: 10.1 µM
- ED50 [12]: 6.77 µM
- ED50 [13]: 3.51 µM
- ED50 [14]: 143 µM
- ED50 (Homo sapiens [15]): 15.7 µM
- ED50 [16]: 0.27 µM
- ED50 [17]: 2.45 µM
- ED50 [18]: 0.896 µM
- ED50 [19]: 0.675 µM
- ED50 (Tektin-1 (Homo sapiens)): 44 µM
- ED50 [20]: 83 µM
- ED50 [21]: 0.0229 µM
- ED50 [22]: 1150 µM
- ED50 (Homo sapiens [23]): 11.8 µM
- ED50 [24]: 5.3 µM
- ED50 [25]: 3.43 µM
- ED50 [26]: 0.0167 µM
- ED50 [27]: 0.00397 µM
- ED50 (Homo sapiens [28]): 5.28 µM
- ED50 [29]: 0.816 µM
- ED50 [30]: 8.64 µM
- ED50 [31]: 5.47 µM
- ED50 [32]: 0.384 µM
- ED50 [33]: 0.132 µM
- ED50 [34]: 0.0122 µM
- ED50 [35]: 0.033 µM
- ED50 [36]: 6.96 µM

Structure (SMILES): Cc1ccc(C(=O)Nc2cccc(C(F)(F)F)c2)cc1Nc1nc(-c2cccnc2)nc2nn(C)cc12
- ED50 [37]: 1250 µM
- ED50 (Homo sapiens [38]): 0.00599 µM
- ED50 [39]: 0.00823 µM
- ED50 [40]: 0.0173 µM
- ED50 [41]: 26.8 µM
- ED50 [42]: 32.7 µM
- ED50 (Translin (Homo sapiens)): 0.00101 µM
- ED50 [43]: 0.0508 µM
- ED50 [44]: 0.0289 µM
- ED50 [45]: 6770 µM
